These results are taken from PubChem BioAssay (NCI).

Some test systems named below: SF-295 CNS; SR leukemia; LOX IMVI melanoma; CAKI-1 renal; OVCAR-8 ovarian; HL-60(TB) leukemia; SK-OV-3 ovarian; COLO 205 colon; SNB-75 CNS; HOP-92 NSCLC.
Common to all, as to assay: growth of human tumour cells (NCI), 48 h

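Where inhibition never reached the appropriate level, the endpoint shown equals the highest concentration tested. Otherwise, values were interpolated linearly from a five-concentration, 48-hour dose response in 96-well plates. GI50: concentration for 50% inhibition of growth. The concentration for full growth arrest is given as TGI.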

For `COc1cc(Nc2nc3cc(N)cc(N)c3nc2-c2ccccc2)cc(OC)c1`, the GI50 in the test on SF-295 CNS was 12.5 µM; in the test on SR leukemia it was 5.67 µM; in the test on LOX IMVI melanoma it was 15.2 µM; in the test with CAKI-1 renal, 14.9 µM; in the test with OVCAR-8 ovarian, 6.2 µM; with HL-60(TB) leukemia, 9.99 µM. Besides, the GI50 in the test with SK-OV-3 ovarian is 6.55 µM; in the test on COLO 205 colon, 14.5 µM; with SNB-75 CNS it was 3.7 µM. Besides, the TGI was 59.2 µM in the test with SF-295 CNS; over 100 µM with SR leukemia; 50.6 µM in the test with LOX IMVI melanoma; 73 µM in the test on CAKI-1 renal; 47 µM in the test with OVCAR-8 ovarian; over 100 µM in the test on HL-60(TB) leukemia. Besides, the TGI in the test with SK-OV-3 ovarian stood at 40.2 µM; in the test on COLO 205 colon it was 31.4 µM; in the test on SNB-75 CNS, 44.9 µM.

Turning to `O=C(O)c1cc2ccccc2c(O)c1O`, the TGI was 29.4 µM in the test on SF-295 CNS; over 79 µM in the test on SR leukemia; 14.9 µM with LOX IMVI melanoma; 33.9 µM in the test with CAKI-1 renal; 27.4 µM in the test with OVCAR-8 ovarian; over 74.3 µM with HL-60(TB) leukemia. Besides, the TGI in the test on SK-OV-3 ovarian is 29 µM; in the test on COLO 205 colon, 31.4 µM; in the test with HOP-92 NSCLC, over 54.9 µM; in the test with SNB-75 CNS it was 31.7 µM.

`COC(=O)C(CCS(=O)(=O)CC(=O)C(=O)Nc1cccc(C(C)=O)c1)C(=O)OC`: the TGI with SF-295 CNS was over 100 µM; in the test with SR leukemia, 50 µM; in the test with LOX IMVI melanoma, over 100 µM; with CAKI-1 renal, over 100 µM; in the test with OVCAR-8 ovarian, over 100 µM; in the test on HL-60(TB) leukemia, over 100 µM. Further, the TGI was over 100 µM in the test on SK-OV-3 ovarian, over 94.2 µM with COLO 205 colon, over 100 µM in the test on HOP-92 NSCLC and over 100 µM with SNB-75 CNS.

In the case of `CCCN(CCCCC(NC(C)=O)C(=O)NCc1ccccc1)C(=O)NCCCl` (centres undefined), the TGI in the test with SF-295 CNS, with SR leukemia, in the test on CAKI-1 renal, in the test with OVCAR-8 ovarian, in the test with HL-60(TB) leukemia and with COLO 205 colon was over 100 µM in each case. In addition, the TGI in the test on HOP-92 NSCLC and in the test on SNB-75 CNS was over 100 µM in each case.

As for `CCCCn1c2cc(OCc3cn(-c4ccc(Cl)cc4)nn3)ccc2c2ccnc(C)c21`, the GI50 is 5.03 µM in the test with SF-295 CNS; 5.2 µM in the test with SR leukemia; 5.91 µM in the test with LOX IMVI melanoma; 6.42 µM in the test with OVCAR-8 ovarian; 5.09 µM in the test with HL-60(TB) leukemia; 5.45 µM with SK-OV-3 ovarian. Besides, the GI50 in the test on COLO 205 colon is 5.76 µM; in the test on HOP-92 NSCLC it was 4.22 µM; in the test with SNB-75 CNS it was 5.09 µM. The TGI in the test with SF-295 CNS was 17.8 µM; in the test on SR leukemia, 22.4 µM; with LOX IMVI melanoma, 12.3 µM; in the test on OVCAR-8 ovarian, 23.9 µM; with HL-60(TB) leukemia, 12.6 µM; with SK-OV-3 ovarian it was 13.4 µM. In addition, the values for the TGI with COLO 205 colon, in the test on HOP-92 NSCLC and in the test on SNB-75 CNS were 14.4 µM, 16.3 µM and 13.1 µM, respectively.

For `O=Cc1c(-c2cc(O)ccc2O)nc2sccn12`, the GI50 with SF-295 CNS is 25 µM; with SR leukemia, 0.64 µM; in the test with LOX IMVI melanoma, 8.94 µM; with CAKI-1 renal it was 0.958 µM; in the test on OVCAR-8 ovarian, 21.4 µM; in the test on SK-OV-3 ovarian, 78.5 µM. Further, the figures for the GI50 with COLO 205 colon, with HOP-92 NSCLC and in the test on SNB-75 CNS were 32.3 µM, 10.7 µM and 36.9 µM, respectively. Further, the TGI in the test with SF-295 CNS is 74.6 µM; with SR leukemia it was 3.42 µM; in the test with LOX IMVI melanoma it was 33.5 µM; in the test with CAKI-1 renal, 4.09 µM; with OVCAR-8 ovarian, over 100 µM; with SK-OV-3 ovarian it was over 100 µM. In addition, the figures for the TGI in the test on COLO 205 colon, with HOP-92 NSCLC and in the test with SNB-75 CNS were over 100 µM, 27.3 µM and over 100 µM, respectively.

For the molecule `C1CC[N-]CC1.C1CC[N-]CC1.C1CC[N-]CC1.C1CC[N-]CC1.[Cl][Rh][Cl]`, the GI50 in the test with SF-295 CNS is 3 µM; in the test on SR leukemia it was 4.75 µM; with LOX IMVI melanoma, 10.2 µM; in the test with CAKI-1 renal it was 67.7 µM; with OVCAR-8 ovarian it was 4.07 µM; in the test with SK-OV-3 ovarian, 14.8 µM. For the same molecule, the GI50 in the test on COLO 205 colon was 3.17 µM; in the test on HOP-92 NSCLC, 4.39 µM; with SNB-75 CNS, 6.69 µM. Further, the TGI in the test on SF-295 CNS is 81.1 µM; in the test with SR leukemia it was 42 µM; with LOX IMVI melanoma it was over 100 µM; with CAKI-1 renal, over 100 µM; with OVCAR-8 ovarian it was over 100 µM; with SK-OV-3 ovarian, over 100 µM. In addition, the results for the TGI in the test with COLO 205 colon, in the test with HOP-92 NSCLC and in the test with SNB-75 CNS were 9.34 µM, 22.1 µM and 80.3 µM, respectively.

Take `CC(=O)Nc1ccc(C(=O)N2N=C(C)/C(=C/c3ccccc3O)C2=O)cc1`: the TGI in the test with SF-295 CNS, with SR leukemia, in the test with LOX IMVI melanoma, with CAKI-1 renal, with OVCAR-8 ovarian and in the test on HL-60(TB) leukemia was over 100 µM each time. Also, the TGI in the test on COLO 205 colon and in the test with SNB-75 CNS was over 100 µM in each case.

Consider `Cc1c(/C=N/NS(=O)(=O)c2ccccc2)no[n+]1[O-]`, for which the TGI in the test with SF-295 CNS, in the test on SR leukemia, in the test with CAKI-1 renal, with OVCAR-8 ovarian, in the test on HL-60(TB) leukemia and with SK-OV-3 ovarian was over 100 µM in each case. In addition, the TGI in the test on COLO 205 colon and in the test on HOP-92 NSCLC was over 100 µM in each case.

As for `COCCn1cc(-c2csc(-c3c[nH]c4ccccc34)n2)c2cccnc21`, the GI50 is 3.35 µM with SF-295 CNS; 3.02 µM with SR leukemia; 3.96 µM in the test on LOX IMVI melanoma; 8.36 µM in the test on CAKI-1 renal; 8 µM in the test with OVCAR-8 ovarian; 14.8 µM with SK-OV-3 ovarian. The results for the GI50 in the test with COLO 205 colon, with HOP-92 NSCLC and with SNB-75 CNS were 2.66 µM, 14.9 µM and 1.43 µM, respectively. The TGI in the test with SF-295 CNS, with SR leukemia, in the test with LOX IMVI melanoma, in the test with CAKI-1 renal, with OVCAR-8 ovarian and with SK-OV-3 ovarian was over 100 µM throughout. For the same molecule, the values for the TGI with COLO 205 colon, in the test with HOP-92 NSCLC and in the test with SNB-75 CNS were over 100 µM, over 100 µM and 24.7 µM, respectively.
